Source: patent US20060241073A1, “Means and methods for counteracting fatty acid accumulation” (priority 2005, published 2006)
Like-named read-outs stand apart in the source and are kept apart here.

How the values were obtained:
[1] = tested on: phytanic acid omega-hydroxylase (cytochrome P450) of rat liver microsomes; assay: Phytanic acid omega-hydroxylation in rat liver microsomes (formation of omega-hydroxyphytanic acid, GC/MS); assay type: biochemical; settings: for effect on the formation of omega-hydroxyphytanic acid: different concentrations of imidazole derivatives (FIG. 4A)
Procedure: (§1) To this end, Male Wistar rats fed a standard laboratory diet, were fasted overnight before sacrifice and removal of the liver. The livers were rapidly chilled and washed several times in buffer containing 250 mM sucrose, 0.5 mM EDTA, 2 mM MOPS/KOH (final pH 7.4). Subsequently, the livers were minced and homogenized with a Potter S homogenizer (B. Braun, Germany) with a teflon pestle at 500 rpm (5 strokes), followed by centrifugation of the homogenate for 10 min at 550×g. The obtained post-nuclear supernatant was subjected to centrifugation at 22,500×g for 10 min to remove mitochondria and lysosomes. Finally, the microsomal fraction was obtained by centrifugation of the supernatant for 3 h at 32,000×g. The microsomal pellet fraction was taken up in PBS containing 5 mM DTT and divided into small aliquots, which were stored at −80° C. The microsomes were sonicated 3 times for 10 s at 8 Watt before each experiment.
The standard reaction mixture consisted of 100 mM potassium phosphate buffer pH 7.4 and rat liver microsomes (1 mg/ml end concentration) plus phytanic acid dissolved in DMSO (200 μM end concentration, unless indicated otherwise). Reactions were initiated by addition of NADPH at a final concentration of 1 mM. The final reaction volume was 0.2 ml. Reactions were terminated by addition of 0.2 ml 1 M HCl. […] The internal standard (IS, 10 nmol 3-hydroxyheptadecanoic acid in 20 μl ethanol) was added to this aqueous mixture. The samples were extracted twice with 6 ml ethylacetate-diethylether (1:1 v/v). The organic layer was collected and the solvents evaporated under vacuum using a rotary evaporator at room temperature. The residue was dissolved in 4 ml ethylacetate and further dried with MgSO4. After spinning down the MgSO4, the solution was transferred to 4 ml reaction vials and the solvent evaporated under nitrogen. […] TMS ester/ether formation was performed with 40 μl N,O-bis-(trimethylsilyl)trifluoroacetamide (BSTFA) containing 1% trimethylchlorosilane (TMCS) and 10 μl pyridine. The vials were sealed with a Teflon-lined screwcap and incubated at 80° C. for 1 hour. After the incubation the solution could be directly used for GC-MS analysis.
The identity of the substrate, the internal standard, and the reaction product(s) was verified by taking mass spectra of the pertrimethylsilylated derivatives in the scanning electron impact mode.
Based on the experiments described above, I selected the following assay conditions: 0,75 mg/ml methyl-beta-cyclodextrin, 100 mM potassium phosphate (pH 7.6), 1 mM NADPH, and 200 μM phytanic acid. Under these conditions, formation of omega-hydroxyphytanic acid was linear with time up to 60 min, and with protein up to 1 mg/ml (data not shown).
FIG. 4. […] Rat liver microsomes were incubated with phytanic acid in the presence of different concentrations of imidazole derivatives. The inhibitory effect of the imidazole derivatives on the formation of omega-hydroxyphytanic acid (omega-HPA; A) and (omega-1)-hydroxyphytanic acid (B) is shown. The data shown represent means of duplicate experiments.

[2] = tested on: phytanic acid (omega-1)-hydroxylase (cytochrome P450) of rat liver microsomes; assay: Phytanic acid (omega-1)-hydroxylation in rat liver microsomes (formation of (omega-1)-hydroxyphytanic acid, GC/MS); assay type: biochemical; settings: different concentrations up to 100 μM (FIG. 4B)
Procedure: as §1
The standard reaction mixture consisted of 100 mM potassium phosphate buffer pH 7.4 and rat liver microsomes (1 mg/ml end concentration) plus phytanic acid dissolved in DMSO (200 μM end concentration, unless indicated otherwise). Reactions were initiated by addition of NADPH at a final concentration of 1 mM. The final reaction volume was 0.2 ml. Reactions were terminated by addition of 0.2 ml 1 M HCl. […]

[3] = tested on: phytanic acid omega-hydroxylase (cytochrome P450) of pooled human liver microsomes; assay: Phytanic acid omega-hydroxylation in pooled human liver microsomes (formation of omega-hydroxyphytanic acid, GC/MS); settings: for effect on the formation of omega-hydroxyphytanic acid / Km: pooled human liver microsomes; for effect on the formation of omega-hydroxyphytanic acid: different concentrations of imidazole derivatives (FIG. 7A)
Procedure: (§2) Reactions were initiated by adding NADPH (final concentration 1 mM) and terminated by addition of 0.1 ml 1 M HCl. […] After addition of the internal standard (IS, 2 nmol 3-hydroxyheptadecanoic acid in 20 μl ethanol) the samples were extracted twice with 6 ml ethylacetate-diethylether (1:1 v/v). The organic layers were collected and the solvents evaporated. The residue was dissolved in 4 ml ethylacetate and further dried with anhydrous MgSO4 and again evaporated. […] TMS ester/ether formation was performed by incubating the samples with 40 μl BSTFA containing 1% TMCS and 10 μl pyridine at 80° C. for 1 hour. After the incubation the solution was directly used for GC-MS analysis.
(§3) FIG. 7. […] Pooled human liver microsomes were incubated with phytanic acid in the presence of different concentrations of imidazole derivatives. […] The data shown represent means of duplicate experiments.

[4] = tested on: phytanic acid omega-hydroxylase (cytochrome P450); assay: in vitro; settings: human, pH 7.7
Procedure: as §2, §3

[5] = tested on: phytanic acid (omega-1)-hydroxylase (cytochrome P450); assay: in vitro; settings: human, pH 7.7
Procedure: as §2, §3

Row | Compound | effect on the formation of omega-hydroxyphytanic acid [1] | effect on the formation of (omega-1)-hydroxyphytanic acid [2] | effect on the formation of omega-hydroxyphytanic acid [3] | IC50 [4] [µM] | IC50 [5] [µM] | other results
1 | CC(=O)N1CCN(c2ccc(OCC3COC(Cn4ccnc4)(c4ccc(Cl)cc4Cl)O3)cc2)CC1 (stereo not drawn) [Ketoconazole] | inhibited | – | – | – | – | –
2 | Clc1ccccc1C(c1ccccc1)(c1ccccc1)n1ccnc1 [Clotrimazole] | inhibited | stimulatory effect at low concentrations with little inhibition at the highest concentrations used | inhibit product formation | 43 | 3 | –
3 | c1ccc(-c2ccc(C(c3ccccc3)n3ccnc3)cc2)cc1 (stereo not drawn) [Bifonazole] | most potent inhibitor | – | inhibit product formation | 13 | < 2 | –
4 | CC(C)CCCC(C)CCCC(C)CCCC(C)CC(=O)O (stereo not drawn) [phytanic acid, 3,7,11,15-tetramethylhexadecanoic acid] | – | – | – | – | – | Km ([1]; fixed molar ratio phytanic acid/methyl-beta-cyclodextrin (FIG. 3D), read-out: apparent Km for phytanic acid): 114 ± 9 µM; ratio omega:(omega-1) hydroxylated products ([1]; four separate experiments): 2.2±0.2; ratio omega:(omega-1) hydroxylated products ([3]; pooled human microsomes, four separate experiments): 15.4±0.7; Km ([3]; read-out: apparent Km for phytanic acid, estimated as substrate concentration with half maximal omega-hydroxylation activity (FIG. 6D)): 80 µM
5 | Clc1ccc(COC(Cn2ccnc2)c2ccc(Cl)cc2Cl)c(Cl)c1 (stereo not drawn) [Miconazole] | inhibited | most potent inhibitor | inhibit product formation | 30 | < 2 | –
6 | NC(=O)C1=CN([C@@H]2O[C@H](COP(=O)(O)OP(=O)(O)OC[C@H]3O[C@@H](n4cnc5c(N)ncnc54)[C@H](OP(=O)(O)O)[C@@H]3O)[C@@H](O)[C@H]2O)C=CC1 [NADPH] | – | – | – | – | – | Km ([1]; NADPH regenerating system, Lineweaver-Burke plot (FIG. 3C), read-out: apparent Km for NADPH): 35 µM; Km ([3]; read-out: Km for NADPH, NADPH-regenerating system, Lineweaver Burke plot (FIG. 6C), means of duplicate experiments): 2 µM
